Reference: patent US5070139A, “2,4-disubstituted 1,3-dioxolanes” (J. Uriach & Cia. S.A., priority 1987, dated 1991)
Counter-ions that a name gives are not always drawn.

Key:
[1] = test system: platelet aggregation induced by PAF in rabbit platelets; assay: Inhibition of platelet aggregation induced by PAF (Test 1); type: cell-based, male New Zealand albino rabbits; conditions: concentration needed to inhibit platelet aggregation by 50%, PAF 16 nM final, rabbit platelet rich plasma
Procedure: Test 1: Inhibition of Platelet Aggregation Induced by PAF.
The blood is obtained by cardiac puncture of male New Zealand albino rabbits (between 2 and 2.5 Kg of weight) and coagulation is prevented by adding 1 part of 3.16% sodium citrate dihydrate in 9 parts of blood. The platelet rich plasma (PRP) is prepared by blood centrifugation at 250 xg for 10 min. at 4° C. and it is diluted with platelet poor plasma (PPP) obtained by additional centrifugation at […] for 10 min. The amount of platelets is adjusted to […]. The platelet aggregation induced by PAF (C18, prepared in our laboratory) (16 nM, final) is determined by the Born nephelometric technique (J. Physiol., 1962, 162, 67) using a aggregometer Chronolog 500. The activities of the inhibitors are expressed as IC50, that is to say the concentration of the drug needed to inhibit the platelet aggregation in a 50%.

[2] = test system: hypotension induced by PAF; assay: Inhibition of the hypotensive effect induced by PAF in normotense rats (Test 2); type: in vivo, Male Sprague Dawley rats; conditions: i.v., 3 min before PAF (0.5 mg/Kg, i.v.), anesthetized rats
Procedure: Test 2--Inhibition of the Hypotensive Effect Induced by PAF in normotense Rats.
(§1) Male Sprague Dawley rats, of 180-220 g of weight, anesthetized with sodium pentobarbital (50 mg/Kg, i.p. 1 mL/100 g) have been used. In order to measure the average arterial pressure, a polyethylene catheter is introduced into the carotide artery. The arterial pressure is recorded with the help of a transducer connected with a R611 Beckman polygraph. The tested compounds are administrated through the femoral vein 3 min. Before the injection of PAF (0.5 mg/Kg, i.v.).

[3] = test system: hypotension induced by PAF; assay: Reversion of the hypotensive effect induced by PAF in normotense rats (Test 3); type: in vivo, Male Sprague Dawley rats; conditions: Rattus norvegicus, iv, 1 min; i.v., 1 min after the injection of PAF; read-out: ID50, dose required to reduce in a 50% the time of recovery of the basal blood pressure
Procedure: as §1
Test 3--Reversion of the Hypotensive Effect Induced by PAF in Normotense Rats
The experimental design is similar to that of test 2, except in that the compound to be tested is given by intravenous injection 1 min. After the injection of PAF. In the controls the blood pressure recovers 80% of the basal level 6.2 min. after the injection of PAF. The effect of the tested compounds is expressed as the dose required to reduce in a 50% the time of recovery of the basal blood pressure (ID50).

[4] = Oryctolagus cuniculus, Platelet

Structure (SMILES) | IC50 [1, 4] [µM] | % Inhibition of the hypotension induced by PAF ([2]; compound 5 mg/Kg) [%] | also measured
CCCCCCCCCCCCCCCCCC1OCC(COCCCC[n+]2ccsc2)O1 (racemic) [Compound 5, (±)-cis, trans-3-[4-[(2-heptadecyl-1,3-dioxolane-4-yl)methoxy]butyl)thiazolium iodide] | – | – | IC50 [1]: 5 µM
CCCCCCCCCCCCCCCCCC1OCC(COCCCCCC[n+]2cscc2C)O1 (racemic) [Compound 7, (±)-cis, trans-3-[6-[(2-heptadecyl-1,3-dioxolane-4-yl)methoxy]hexyl]-4-methylthiazolium 4-methylbenzenesulfonate] | 3.1 | – | –
CCCCCCCCCCCCCCCCCC1OCC(COCCCCCC[N+]2(C)CCOCC2)O1 (racemic) [Compound 9, (±)-cis, trans-4-[6-[(2-heptadecyl-1,3-dioxolane-4-yl)methoxy]hexyl]-4-methylmorpholinium 4-methylbenzenesulfonate] | 18 | – | –
CCCCCCCCCCCCCCCCCC1OCC(COCCCCCC[N+](C)(C)C)O1 (racemic) [Compound 10, (±)-cis, trans-6-[(2-heptadecyl-1,3-dioxolane-4-yl)methoxy]-N,N,N-trimethyl-1-hexanaminium 4-methylbenzenesulfonate] | 5.5 | – | –
CCCCCCCCCCCCCCCCCC1OCC(COCCCCCC[n+]2cccc3ccccc32)O1 (racemic) [Compound 11, (±)-cis, trans-1-[6-(2-heptadecyl-1,3-dioxolane-4-yl)methoxy]hexyl]quinolinium 4-methylbenzenesulfonate] | 3.9 | – | –
CCCCCCCCCCCCCCCCCC1OCC(COCCCCCC[n+]2csc3ccccc32)O1 (racemic) [Compound 12, (±)-cis, trans-3-[6-[(2-heptadecyl-1,3-dioxolane-4-yl)methoxy]hexyl]benzothiazolium4-methylbenzenesulfonate] | 16 | – | –
CCCCCCCCCCCCCCCCCC1OCC(COCCCCCCCC[n+]2ccsc2)O1 (racemic) [Compound 22, (±)-cis, trans-3-[8-[(2-heptadecyl-1,3-dioxolane-4-yl)methoxy]octyl]thiazolium 4-methylbenzenesulfonate] | 5.1 | – | –
CCCCCCCCCCCCCCCCCC1OCC(COC(=O)CCCCC[n+]2cscc2C)O1 (racemic) [Compound 26, (±)-cis, trans-3-[6-[(2-heptadecyl-1,3-dioxolane-4-yl)methoxy]-6-oxohexyl]-4-methylthiazolium 4-methylbenzenesulfonate] | 2.5 | – | –
CCCCCCCCCCCCCCCCCC1OCC(COC(=O)CCCCC[n+]2ccsc2)O1 (racemic) [Compound 27, (±)-cis, trans-3-[6-[(2-heptadecyl-1,3-dioxolane-4-yl)methoxy]-6-oxohexyl]thiazolium 4-methylbenzenesulfonate] | 1.3 | 100 | ED50 [3]: 0.16 mg/kg; % Inhibition of the hypotension induced by PAF ([2]; compound 0.63 mg/Kg): 28%; % Inhibition of the hypotension induced by PAF ([2]; compound 1.25 mg/Kg): 75%
CCCCCCCCCCCCCCCCCC1OCC(COC(=O)CCCCC[N+]2(C)CCOCC2)O1 (racemic) [Compound 30, (±)-cis, trans-4-[6-[(2-heptadecyl-1,3-dioxolane-4-yl)methoxy]-6-oxohexyl]-4-methylmorpholinium 4-methylbenzenesulfonate] | 21 | – | –
CCCCCCCCCCCCCCCCCC1OCC(COC(=O)CCCCC[N+](C)(C)C)O1 (racemic) [Compound 31, (±)-cis, trans-6-[(2-heptadecyl-1,3-dioxolane-4-yl)methoxy]-6-oxo-N,N,N-trimethyl-1-hexanaminium 4-methylbenzenesulfonate] | 7.8 | – | –
CCCCCCCCCCCCCCCCCC1OCC(COC(=O)CCCCC[n+]2cccc3ccccc32)O1 (racemic) [Compound 32, (±)-cis, trans-1-[6-[(2-heptadecyl-1,3-dioxolane-4-yl)methoxy]-6-oxohexyl]quinolinium 4-methylbenzenesulfonate] | 2.5 | 80 | –
CCCCCCCCCCCCCCCCCC1OCC(COP(=O)([O-])OCC[N+](C)(C)C)O1 (racemic) [Compound 47, (±)-cis, trans-2-[[[(2-heptadecyl-1,3-dioxolane-4-yl)methoxy]hydroxyphosphinyl]oxy]-N,N,N-trimethylethanaminium hydroxide, inner salt] | 180 | – | –
CCCCCCCCCCCCCCCCCC1OCC(COP(=O)([O-])OCC[n+]2ccccc2)O1 (racemic) [Compound 48, (±)-cis, trans-1-[2-[[[(2-heptadecyl-1,3-dioxolane-4yl)methoxy]hydroxyphosphinyl]oxy]ethyl]pyridinium hydroxide, inner salt] | 180 | – | –

The next lines start with results.

IC50 [1, 4] [µM] | Structure (SMILES) | % Inhibition of the hypotension induced by PAF ([2]; compound 5 mg/Kg) [%] | also measured
5.5 | CCCCCCCCCCCCCCCCCC1OCC(COCCCC[n+]2ccccc2)O1 (racemic) [Compound 1, (±)-cis, trans-1[4-[(2-heptadecyl-1,3-dioxolane-4-yl)methoxy]butyl]piridinium 4-methylbenzenesulphonate] | 24 | –
6 | CCCCCCCCCCCCCCCCCC1OCC(COCCCC[n+]2ccsc2)O1 (racemic) [Compound 2, (±)-cis, trans-3-[4-[(2-heptadecyl-1,3-dioxolane-4-yl)methoxy]butyl]thiazolium 4-methylbenzenesulfonate] | – | –
3.3 | CCCCCCCCCCCCCCCCCC1OCC(COCCCCCC[n+]2ccccc2)O1 (racemic) [Compound 6, (±)-cis, trans-1-[6-[(2-heptadecyl-1,3-dioxolane-4-yl)methoxy]hexyl]pyridinium 4-methylbenzenesulfonate] | 42 | –
1.4 | CCCCCCCCCCCCCCCCCC1OCC(COCCCCCC[n+]2ccsc2)O1 (racemic) [Compound 8, (±)-cis, trans-3-[6-[(2-heptadecyl-1,3-dioxolane-4-yl)methoxy]hexyl]thiazolium 4-methylbenzenesulfonate] | 88 | ED50 [3]: 0.3 mg/kg; % Inhibition of the hypotension induced by PAF ([2]; compound 1.25 mg/Kg): 46%; % Inhibition of the hypotension induced by PAF ([2]; compound 2.5 mg/Kg): 75%
14 | CCCCCCCCCCCCCCCCCC1OCC(COCCCCCCCC[n+]2ccccc2)O1 (racemic) [Compound 20, (±)-cis, trans-1-[8-[(2-heptadecyl-1,3-dioxolane-4-yl)methoxy]octyl]pyridinium 4-methylbenzenesulfonate] | – | –
2.6 | CCCCCCCCCCCCCCCCCC1OCC(COC(=O)CCCCC[n+]2ccccc2)O1 (racemic) [Compound 24, (±)-cis, trans-1-[6-[(2-heptadecyl-1,3-dioxolane-4-yl)methoxy]-6-oxohexyl]pyridinium 4-methylbenzenesulfonate] | 72 | % Inhibition of the hypotension induced by PAF ([2]; compound 2.5 mg/Kg): 58%
